Laboratory results published in US6958335B2, “Treatment of gastrointestinal stromal tumors” (Novartis AG, priority 2000, dated 2005).
Like-named read-outs stand apart in the source and are kept apart here.

Legend:
GIST = test system: GIST
Source text: At the priority date of the present patent application a clinical study with more GIST patients was being conducted analogously to the study described in Example 1.

[1] = test system: unresectable and/or metastatic malignant gastrointestinal stromal tumors (GIST)
Protocol: A phase 2, open-label, randomized multinational study was conducted in patients with unresectable and/or metastatic malignant gastrointestinal stromal tumors (GIST). […] The primary evidence of efficacy was based on objective response rates, and the time to response, duration of response, time to treatment failure and survival were also evaluated. Tumors were required to be measurable in at least one site of disease, and response characterization based on Southwestern Oncology Group (SWOG) criteria.

[2] = test system: unresectable metastatic GIST; settings: for total tumour size (tumour area of 8 large measurable liver metastases, MRI): 112.5 cm^2 before treatment
Protocol: Seven cycles of IADIC (ifosfamide, doxoribicin, and dacarbazine) were given from November 1998 to March 1999 for multiple liver metastases. […] They were subsequently treated between April 1999 and February 2000 with an experimental regimen consisting of thalidomide 400 mg once daily and interferon alpha 0.9 MU T.I.D. s.c. to control persisting liver disease.
(§1) Treatment toxicity was assessed at follow-up visits performed at 2 to 4 week intervals, and blood cell counts and blood chemistry were analysed at 1 to 2 week intervals. Treatment response was assessed with dynamic MRI scans, ^18F-fluorodeoxyglucose (FDG) positron emission tomography (PET) examinations, and cutting needle biopsies from a liver metastasis. Dynamic MRI was performed with a 1.5T Magnetom Vision (Siemens, Erlangen, Germany). Fat-suppressed T1-weighted breathhold gradient echo transaxial images were obtained both before and after intravenous contrast medium injection (0.1 mmol/kg gadolinium-DOTA; Dotarem, Guerbet, France). The enhancement pattern was established using sequential imaging over 5 minutes, and delayed scanning was performed after 10 minutes. FDG PET was done using an 8-ring ECAT 931/08 device (Siemens-CTI Corp. Knoxville, Tenn.). The FDG dose given varied between 355 to 375 MBq.

[3] = during therapy
Protocol: as §1, with “minutes.” for “minutes. FDG PET was done using an 8-ring ECAT 931/08 device (Siemens-CTI Corp. Knoxville, Tenn.). The FDG dose given varied between 355 to 375 MBq.”

[4] = among the 61 patients with stable disease

Which “reduction in patients with partial response” value (GIST; 8 patients) does the source give for `CS(=O)(=O)O.Cc1ccc(NC(=O)c2ccc(CN3CCN(C)CC3)cc2)cc1Nc1nccc(-c2cccnc2)n1` [SALT I] here?
Its value is 50-66%.

What about the “reduction in patients with stable disease” value (GIST; 18 patients) of the same molecule?
The value was 4-42%.

And the “patients with partial response” value (GIST; of 27 evaluated patients)?
Its value is 8 patients.

And the “patients with stable disease” value (GIST; of 27 evaluated patients)?
Its value is 18 patients.

And the “patients with progression of the disease” value (GIST; of 27 evaluated patients, study not finished)?
Its value is 1 patient.

What about the “Best response: Complete response” value ([1]; 400 mg (N = 73)) of the same molecule?
The value was 0 n (%).

And the “Best response: Not evaluable” value ([1]; 400 mg (N = 73))?
The value was 3 (4.1) n (%).

And the “Best response: Partial response” value ([1]; 400 mg (N = 73))?
Its value is 27 (37.0) n (%).

And the “Best response: Progressive disease” value ([1]; 400 mg (N = 73))?
The value was 10 (13.7) n (%).

What about the “Best response: Stable disease” value ([1]; 400 mg (N = 73)) of the same molecule?
The value was 33 (45.2) n (%).

What about the “Best response: Unknown” value ([1]; 400 mg (N = 73)) of the same molecule?
Its value is 0 n (%).

What about the “differences between dose groups in efficacy parameters” value ([1]; 400 mg vs 600 mg) of the same molecule?
Its value is “could not be observed”.

What about the “Best response: Complete response” value ([1]; 600 mg (N = 74)) of the same molecule?
Its value is 0 n (%).

What about the “Best response: Not evaluable” value ([1]; 600 mg (N = 74)) of the same molecule?
The value was 4 (5.4) n (%).

And the “Best response: Partial response” value ([1]; 600 mg (N = 74))?
The value was 32 (43.2) n (%).

What about the “Best response: Progressive disease” value ([1]; 600 mg (N = 74)) of the same molecule?
The value was 8 (10.8) n (%).

What about the “Best response: Stable disease” value ([1]; 600 mg (N = 74)) of the same molecule?
The value was 28 (37.8) n (%).

And the “Best response: Unknown” value ([1]; 600 mg (N = 74))?
The value was 2 (2.7) n (%).

And the “Best response: Complete response” value ([1]; All doses (N = 147))?
Its value is 0 n (%).

What about the “Best response: Not evaluable” value ([1]; All doses (N = 147)) of the same molecule?
The value was 7 (4.8) n (%).

And the “Best response: Partial response” value ([1]; All doses (N = 147))?
The value was 59 (40.1) n (%).

And the “Best response: Stable disease” value ([1]; All doses (N = 147))?
Its value is 61 (41.5) n (%).

And the “Best response: Unknown” value ([1]; All doses (N = 147))?
Its value is 2 (1.4) n (%).

What about the “patients with reduction in tumor size by more than 25% on at least one assessment” value ([1]; all 147 patients) of the same molecule?
Its value is 118 patients.

And the “share of patients with reduction in tumor size by more than 25% on at least one assessment” value ([1]; all 147 patients)?
The value was 80%.

And the “patients with partial response not yet confirmed by a second assessment” value [1, 4]?
Its value is 28 patients.

What about the “patients with reduction in tumor size by more than 25%” value [1, 4] of the same molecule?
Its value is 19 patients.

What about the “patients with significant tumor shrinkage among stable disease” value [1, 4] of the same molecule?
The value was 47 patients.

And the “estimate of patients free from treatment failure” value (shortened to “estimate of patients free”) ([1]; at 12 weeks, interval censoring)?
The value was 80%.

And the “estimate of patients free” value ([1]; at 12 weeks, without interval-censoring)?
The value was 81%.

And the “estimate of patients free” value ([1]; at 24 weeks, interval censoring)?
Its value is 66%.

And the “estimate of patients free” value ([1]; at 24 weeks, without interval-censoring)?
Its value is 67%.

And the “median time to the onset of response” value ([1]; entire study population)?
Its value is 12 weeks.

And the “relapse among patients with confirmed response” value ([1]; interim analysis)?
Its value is “No patients with confirmed response had relapsed”.

What about the “median duration of response” value ([1]; interim analysis, no interval censoring) of the same molecule?
The value was “approximately 14 weeks”.

And the “median time to treatment failure” value ([1]; interval censoring, pooled population, based on only two patients, not reliable)?
The value was 54 weeks.

And the “metabolic response in tumour (PET imaging)” value ([2]; 400 mg daily orally, within 1 month)?
The value was “complete metabolic response”.

What about the “decrease of total tumour size (MRI)” value ([2]; 1 month) of the same molecule?
The value was 52%.

What about the “total tumour size (tumour area of 8 large measurable liver metastases, MRI)” value ([2]; 1 month) of the same molecule?
Its value is 54.3 cm^2.

What about the “decrease of total tumour size (MRI)” value ([2]; 2 months) of the same molecule?
Its value is 63%.

And the “total tumour size (tumour area of 8 large measurable liver metastases, MRI)” value ([2]; 2 months)?
Its value is 41.5 cm^2.

What about the “decrease of total tumour size (MRI)” value ([2]; 2 weeks after starting) of the same molecule?
Its value is 41%.

What about the “total tumour size (tumour area of 8 large measurable liver metastases, MRI)” value ([2]; 2 weeks after starting) of the same molecule?
The value was 66.9 cm^2.

And the “decrease of total tumour size (MRI)” value ([2]; 4 months)?
The value was 68%.

And the “total tumour size (tumour area of 8 large measurable liver metastases, MRI)” value ([2]; 4 months)?
Its value is 36.2 cm^2.

And the “decrease of total tumour size (MRI)” value ([2]; 5.5 months)?
Its value is 71%.

What about the “total tumour size (tumour area of 8 large measurable liver metastases, MRI)” value ([2]; 5.5 months) of the same molecule?
The value was 32.5 cm^2.

And the “FDG uptake in PET” value ([2]; PET 1 month after starting)?
The value was “no abnormal FDG uptake was present in the liver”.

And the “FDG uptake in PET at the sites of liver metastases” value ([2]; PET 2 months after starting)?
The value was “less FGD uptake than the surrounding liver parenchyma”.

And the “World Health Organization (WHO) performance status” value ([2]; during therapy, improved from 1 before)?
The value was 0.

And the new lesions ([2]; follow-up MRI on treatment)?
The new lesions was “No new lesions appeared”.

And the “liver metastases that disappeared” value ([2]; of the 28 liver metastases, follow-up MRI on treatment)?
The value was 6.

What about the “pattern of contrast enhancement of tumour by dynamic MRI” value ([2]; within 2 weeks after starting) of the same molecule?
Its value is “decreased dramatically”.

And the “drug-related liver, renal or cardiac toxicity” value [3]?
Its value is “No drug-related liver, renal or cardiac toxicity was observed”.
